The values below come from article PMC6384730, “Systematic Identification of Thiosemicarbazides for Inhibition of Toxoplasma gondii Growth In Vitro” (Molecules, 2019).

≈ marks a conversion by molar mass, not a printed value. Where “and” joins values, the source holds several entries; their conditions need not be identical. Equal entries are not always repeated. Where two headings read alike, the source gives them in different places.

One data set has as its system T. gondii RH tachyzoites. Put plainly: Influence on T. gondii proliferation ([3H]uracil incorporation) in infected Vero cells. It is filed as cell-based, Toxoplasma gondii. The following applies: for IC50: Toxoplasma gondii, Vero.
Data set [1] is described as follows: MTT cell viability (cytotoxicity) assay on L929 cells. In kind it is cell-based, mouse. To be noted: mouse, L929 mouse fibroblast cells, 24 h, % of untreated cells; for viability at 24 h, 62.5 µg/mL: 62.50 µg/mL. The protocol: (§1) Cells were trypsinized twice a week, and seeded at density 1 × 10^6 per T25 cell culture flask, and incubated for 24-48 h at 37 °C and 10% CO2 to achieve a confluent monolayer. […] The final concentration of DMSO in compounds dilutions was not higher than 1.00%. […] Dilution of the all compounds 2-22 and drug were freshly prepared before the cells were exposed. […] The MTT assay was used according to international standards: ISO 10993-5:2009(E), Biological evaluation of medical devices, Part 5: Tests for in vitro cytotoxicity. […] Afterward, the culture medium in the plates was replaced by 100 μL of compounds and sulfadiazine suspension and the cells were exposed for 24 h. Then, 1 mg/mL of MTT solution in RPMI 1640 without phenol red was prepared and 50 μL of the solution was added to each well and incubated at 37 °C, 10% CO2 for 2 h. Mitochondrial dehydrogenases of viable cells reduced the yellowish water-soluble MTT to water-insoluble formazan crystals, which were solubilized with dimethyl sulfoxide (DMSO). The cell culture medium was aspirated cautiously, after which 150 μL DMSO was added to each well, the plates were gently mixed, then 25 μL 0.1 M glycine buffer (pH = 10.5) (Sigma) was added. Optical density was read on the ELISA reader (Multiskan EX, Labsystems, Vienna, VA, USA) at 570 nm. The results were expressed as the percentage of viability compared to untreated cells. All experiments were performed in triplicate. Moreover, cells were treated with 4.0-0.03% concentration of DMSO as a compounds solvent (data not shown).

In a further data set the test system is L929 cells. The data set is described as above. It is filed as cell-based, mouse. To be noted: L929 cells, 24 h exposure. The procedure:
as §1

Setting [2] is: RH tachyzoites in Vero cells, [3H]uracil incorporation, highest concentration tested 125 µg/mL, read-out: IC50 (50% inhibition of T. gondii proliferation in vitro).

Method for T. gondii RH tachyzoites: Vero cell line (African green monkey kidney) (ATCC® CCL-81™) were maintained in EMEM (EMEM/10%HIFBS/P/S) (Eagle’s Minimum Essential Medium—ATCC® 30-2003™) culture medium supplemented with 10% HIFBS (Heat-Inactivated (1 h in 56°C) Fetal Bovine Serum—ATCC), 100 U/mL penicillin, 100 μg/mL streptomycin. The cell line was trypsinized (using Trypsin-EDTA Solution, 1X ATCC® 30-2101™) twice a week, and seeded at density 1 × 10^6 per T25 cell culture flask (Falcon), and incubated for 24–48 h at 37 °C and 5 CO2 to achieve a confluent monolayer. The highly virulent RH strain of Toxoplasma gondii, haplogroup I (ATCC® PRA-310™) were maintained as tachyzoites according to the ATCC product sheet, in DMEM (Dulbecco’s Modified Eagle’s Medium—ATCC® 30-2002™) (DMEM/3%HIFBS/P/S—parasite culture medium) under condition 37 °C and 5 CO2 and passage twice per week.
The Vero cells were seeded on 96-well plates (1 × 10^5 cells/100 µL/well) in EMEM/10%HIFBS/P/S. After 24 h of incubation medium was removed and then T. gondii RH tachyzoites were added to the cell monolayers at density 1 × 10^5 cells/100 µL/well in DMEM/3%HIFBS/P/S. One hour later different compounds and sulfadiazine dilutions (100 µL/well) in parasite culture medium were added to the cell monolayers with T. gondii. After subsequent 24 h of incubation 1 µCi/well [5,6-^3H] uracil (Moravek Biochemicals Inc., Brea, CA, USA) was applied to each microculture for further 72 h. The amount of the isotope incorporated into the parasite nucleic acid pool, corresponding to the parasite growth, was measured by liquid scintillation counting using 1450 Microbeta Plus Liquid Scintillation Counter (Wallac Oy, Turku, Finland). The results were expressed as counts per minute (CPM) and transformed to the percentage of viability compared to untreated cells. All experiments were performed in triplicate.

In the case of `Cc1nc[nH]c1C(=O)NNC(=S)Nc1ccccc1[N+](=O)[O-]` [Compound 2, 1-(4-Methylimidazol-5-oyl)-4-(2-nitrophenyl)thiosemicarbazide], the melting point was 215 to 217 °C. The IC50 with T. gondii RH tachyzoites (setting [2]) was 43 µg/mL (≈ 134 µM). Also, in data set [1], the viability at 24 h, 3.91 µg/mL stood at 103%; the viability at 24 h, 7.81 µg/mL stood at 101%; the viability at 24 h, 15.63 µg/mL is 96.7%; the viability at 24 h, 31.25 µg/mL came out at 94.6%. Also, in data set [1], the viability at 24 h, 62.5 µg/mL was 89.7%; the viability at 24 h, 125 µg/mL stood at 75.3%; the viability at 24 h, 250 µg/mL came out at 53.4%; the viability at 24 h, 500 µg/mL turned out to be 29.1%. In addition, the “CC30 (concentration required for 30% cells proliferation inhibition)” value in the data set on L929 cells came to 181.55 µg/mL.
`Cc1nc[nH]c1C(=O)NNC(=S)Nc1cccc([N+](=O)[O-])c1` [Compound 3, 1-(4-Methylimidazol-5-oyl)-4-(3-nitrophenyl)thiosemicarbazide]: in the data set on T. gondii RH tachyzoites (setting [2]), the IC50 stood at 14.8 µg/mL (≈ 46.1 µM). In data set [1], the viability at 24 h, 3.91 µg/mL worked out at 95.4%; the viability at 24 h, 7.81 µg/mL is 94.6%; the viability at 24 h, 15.63 µg/mL turned out to be 94.6%; the viability at 24 h, 31.25 µg/mL was found to be 89.4%. Moreover, in data set [1], the viability at 24 h, 62.5 µg/mL came out at 79%; the viability at 24 h, 125 µg/mL is 72.4%; the viability at 24 h, 250 µg/mL turned out to be 55.8%; the viability at 24 h, 500 µg/mL came out at 15.3%. Also, the “CC30 (concentration required for 30% cells proliferation inhibition)” value in the data set on L929 cells stood at 141.25 µg/mL.
For the compound `Cc1nc[nH]c1C(=O)NNC(=S)Nc1ccc([N+](=O)[O-])cc1` [Compound 4, 1-(4-Methylimidazol-5-oyl)-4-(4-nitrophenyl)thiosemicarbazide], the melting point was 235 to 237 °C. Also, the “fold more potent than sulfadiazine” value in the data set with T. gondii RH tachyzoites (T. gondii proliferation, IC50 ratio) came out at 184 fold. Moreover, the IC50 in the data set on T. gondii RH tachyzoites (setting [2]) worked out at 21.6 µg/mL (≈ 67.5 µM). Besides, in data set [1], the viability at 24 h, 3.91 µg/mL came out at 98.5%; the viability at 24 h, 7.81 µg/mL was 95.7%; the viability at 24 h, 15.63 µg/mL is 95.1%; the viability at 24 h, 31.25 µg/mL was 93.1%. In data set [1], the viability at 24 h, 62.5 µg/mL was 88.9%; the viability at 24 h, 125 µg/mL amounted to 79.6%; the viability at 24 h, 250 µg/mL was 66.9%; the viability at 24 h, 500 µg/mL was determined as 23.2%. Also, the “CC30 (concentration required for 30% cells proliferation inhibition)” value in the data set with L929 cells is listed as 238.78 µg/mL.
Turning to `COc1ccccc1NC(=S)NNC(=O)c1[nH]cnc1C` [Compound 5, 4-(2-Methoxyphenyl)-1-(4-methylimidazol-5-oyl)thiosemicarbazide], the IC50 in the data set on T. gondii RH tachyzoites (setting [2]) turned out to be 33.1 µg/mL (≈ 108 µM). For the same compound, in data set [1], the viability at 24 h, 3.91 µg/mL was found to be 95.8%; the viability at 24 h, 7.81 µg/mL stood at 91.9%; the viability at 24 h, 15.63 µg/mL was 89%; the viability at 24 h, 31.25 µg/mL was determined as 86.5%. In data set [1], the viability at 24 h, 62.5 µg/mL amounted to 78.5%; the viability at 24 h, 125 µg/mL worked out at 69.7%; the viability at 24 h, 250 µg/mL stood at 63.1%; the viability at 24 h, 500 µg/mL stood at 53.6%. The “CC30 (concentration required for 30% cells proliferation inhibition)” value with L929 cells worked out at 138.04 µg/mL.
For the compound `COc1cccc(NC(=S)NNC(=O)c2[nH]cnc2C)c1` [Compound 6, 4-(3-Methoxyphenyl)-1-(4-methylimidazol-5-oyl)thiosemicarbazide], the melting point was 196 to 198 °C. In addition, the IC50 in the data set with T. gondii RH tachyzoites (setting [2]) is 79.7 µg/mL (≈ 261 µM). For the same compound, in data set [1], the viability at 24 h, 3.91 µg/mL came to 92.8%; the viability at 24 h, 7.81 µg/mL came out at 88.6%; the viability at 24 h, 15.63 µg/mL was 86.2%; the viability at 24 h, 31.25 µg/mL came to 83.3%. Also, in data set [1], the viability at 24 h, 62.5 µg/mL worked out at 79.7%; the viability at 24 h, 125 µg/mL turned out to be 68.8%; the viability at 24 h, 250 µg/mL was 67.3%; the viability at 24 h, 500 µg/mL was 56.8%. The “CC30 (concentration required for 30% cells proliferation inhibition)” value with L929 cells turned out to be 165.96 µg/mL.
On to `COc1ccc(NC(=S)NNC(=O)c2nc[nH]c2C)cc1` [Compound 7], for which the IC50 with T. gondii RH tachyzoites (setting [2]) is 114 µg/mL (≈ 373 µM). For the same compound, in data set [1], the viability at 24 h, 3.91 µg/mL turned out to be 95.1%; the viability at 24 h, 7.81 µg/mL came out at 90.3%; the viability at 24 h, 15.63 µg/mL is 89.5%; the viability at 24 h, 31.25 µg/mL worked out at 87.7%. In data set [1], the viability at 24 h, 62.5 µg/mL turned out to be 85.8%; the viability at 24 h, 125 µg/mL was 84%; the viability at 24 h, 250 µg/mL amounted to 70.7%; the viability at 24 h, 500 µg/mL was 68.6%. In the data set on L929 cells, the “CC30 (concentration required for 30% cells proliferation inhibition)” value is 389.05 µg/mL.
For `Cc1nc[nH]c1C(=O)NNC(=S)NCc1ccccc1` [Compound 8, 4-Benzyl-1-(4-methylimidazol-5-oyl)thiosemicarbazide], the IC50 in the data set with T. gondii RH tachyzoites (IC50 greater than 125 µg/mL (highest concentration tested), calculated by extrapolation of the curves (GraphPad Prism), read-out: IC50 (50% inhibition of T. gondii proliferation in vitro), extrapolated) was approximately 150 µg/mL (≈ 517 µM). In data set [1], the viability at 24 h, 3.91 µg/mL was found to be 101%; the viability at 24 h, 7.81 µg/mL stood at 99.4%; the viability at 24 h, 15.63 µg/mL was 96.5%; the viability at 24 h, 31.25 µg/mL was found to be 92%. Besides, in data set [1], the viability at 24 h, 62.5 µg/mL was 88.8%; the viability at 24 h, 125 µg/mL stood at 64.9%; the viability at 24 h, 250 µg/mL was determined as 53.3%; the viability at 24 h, 500 µg/mL is 46.6%. Moreover, the “CC30 (concentration required for 30% cells proliferation inhibition)” value in the data set with L929 cells is given as 123.03 µg/mL.
As to `CC(=O)c1cccc(NC(=S)NNC(=O)c2[nH]cnc2C)c1` [Compound 12, 4-(3-Acetylphenyl)-1-(4-methylimidazol-5-oyl)thiosemicarbazide], the IC50 in the data set on T. gondii RH tachyzoites (setting [2]) came out at 95.5 µg/mL (≈ 301 µM). In data set [1], the viability at 24 h, 3.91 µg/mL was found to be 106%; the viability at 24 h, 7.81 µg/mL amounted to 104%; the viability at 24 h, 15.63 µg/mL was determined as 103%; the viability at 24 h, 31.25 µg/mL amounted to 101%. In addition, in data set [1], the viability at 24 h, 62.5 µg/mL was found to be 99.3%; the viability at 24 h, 125 µg/mL was determined as 96.7%; the viability at 24 h, 250 µg/mL was 76.8%; the viability at 24 h, 500 µg/mL is 56.2%. In addition, the “CC30 (concentration required for 30% cells proliferation inhibition)” value in the data set with L929 cells was determined as 206.54 µg/mL.
In the case of `Cc1nc[nH]c1C(=O)NNC(=S)Nc1cc(F)ccc1F` [Compound 15, 4-(2,5-Difluorophenyl)-1-(4-methylimidazol-5-oyl)thiosemicarbazide], in the data set on T. gondii RH tachyzoites (RH tachyzoites in Vero cells, [3H]uracil incorporation, highest concentration tested 125 µg/mL), the “IC50 (50% inhibition of T. gondii proliferation in vitro)” value is 53.70 µg/mL. Also, in the data set with T. gondii RH tachyzoites (setting [2]), the IC50 stood at 53.1 µg/mL (≈ 170 µM). In data set [1], the viability at 24 h, 3.91 µg/mL was 105%; the viability at 24 h, 7.81 µg/mL turned out to be 102%; the viability at 24 h, 15.63 µg/mL came out at 101%; the viability at 24 h, 31.25 µg/mL was 96.2%. In addition, in data set [1], the viability at 24 h, 62.5 µg/mL was determined as 84.3%; the viability at 24 h, 125 µg/mL amounted to 74.8%; the viability at 24 h, 250 µg/mL amounted to 65.2%; the viability at 24 h, 500 µg/mL was determined as 51.2%. For the same compound, the “CC30 (concentration required for 30% cells proliferation inhibition)” value in the data set with L929 cells was determined as 158.49 µg/mL.
As to `Cc1ccc(NC(=S)NNC(=O)c2[nH]cnc2C)cc1` [Compound 18], the IC50 in the data set with T. gondii RH tachyzoites (setting [2]) is approximately 57.6 µg/mL (≈ 199 µM). For the same compound, in data set [1], the viability at 24 h, 3.91 µg/mL worked out at 99.1%; the viability at 24 h, 7.81 µg/mL was 91.7%; the viability at 24 h, 15.63 µg/mL was determined as 82%; the viability at 24 h, 31.25 µg/mL stood at 69%. Also, in data set [1], the viability at 24 h, 62.5 µg/mL worked out at 64.6%; the viability at 24 h, 125 µg/mL is 63.7%; the viability at 24 h, 250 µg/mL amounted to 60.4%; the viability at 24 h, 500 µg/mL came out at 53%. Further, the “CC30 (concentration required for 30% cells proliferation inhibition)” value in the data set on L929 cells is reported as 34.67 µg/mL.
In the case of `CCOc1ccc(NC(=S)NNC(=O)c2[nH]cnc2C)cc1` [Compound 21, 4-(4-Ethoxyphenyl)-1-(4-methylimidazol-5-oyl)thiosemicarbazide], in the data set on T. gondii RH tachyzoites (setting [2]), the IC50 worked out at 95.3 µg/mL (≈ 298 µM). Moreover, in data set [1], the viability at 24 h, 3.91 µg/mL came to 115%; the viability at 24 h, 7.81 µg/mL was determined as 114%; the viability at 24 h, 15.63 µg/mL is 112%; the viability at 24 h, 31.25 µg/mL was 106%. In addition, in data set [1], the viability at 24 h, 62.5 µg/mL was determined as 101%; the viability at 24 h, 125 µg/mL came out at 84.3%; the viability at 24 h, 250 µg/mL stood at 82.3%; the viability at 24 h, 500 µg/mL is 72%. Further, the “CC30 (concentration required for 30% cells proliferation inhibition)” value in the data set with L929 cells was 500.00 µg/mL and 500 µg/mL.
